# Key:
# HepG2 = test: Cytotoxicity against human HepG2 cells assessed as cell growth inhibition measured after 24 hrs by MTT assay; format: functional, cell-based; settings: HepG2, 24 h
# MCF7 = test: Cytotoxicity against human MCF7 cells assessed as cell growth inhibition measured after 24 hrs by MTT assay; format: functional, cell-based; settings: MCF7, 24 h
# A549 = test: Cytotoxicity against human A549 cells assessed as cell growth inhibition measured after 24 hrs by MTT assay; format: functional, cell-based; settings: A549, 24 h
# L02 = test: Cytotoxicity against human L02 cells assessed as cell growth inhibition measured after 24 hrs by MTT assay; format: cell-based; settings: L02, 24 h
Structure (SMILES),IC50 (HepG2),IC50 (MCF7),IC50 (A549),IC50 (L02)
C[C@@H]1CC[C@@]2(OC1)O[C@H]1C[C@H]3[C@@H]4CC=C5C[C@@H](O)CC[C@]5(C)[C@H]4CC[C@]3(C)[C@H]1[C@@H]2C [DISOGENIN],> 10 µM,> 10 µM,> 10 µM,–
CCN(CC)C(=O)/C=C\C(=O)O[C@H]1CC[C@@]2(C)C(=CC[C@H]3[C@@H]4C[C@@H]5O[C@]6(CC[C@@H](C)CO6)[C@@H](C)[C@@H]5[C@@]4(C)CC[C@@H]32)C1,> 10 µM,> 10 µM,7.1 µM,–
C[C@@H]1CC[C@@]2(OC1)O[C@H]1C[C@H]3[C@@H]4CC=C5C[C@@H](OC(=O)CCC(=O)N6CCN(S(=O)(=O)c7ccccc7)CC6)CC[C@]5(C)[C@H]4CC[C@]3(C)[C@H]1[C@@H]2C,> 10 µM,> 10 µM,8.7 µM,–
C[C@@H]1CC[C@@]2(OC1)O[C@H]1C[C@H]3[C@@H]4CC=C5C[C@@H](OC(=O)CCC(=O)N6CC[N+](Cc7ccc(Cl)cc7)(Cc7ccc(Cl)cc7)CC6)CC[C@]5(C)[C@H]4CC[C@]3(C)[C@H]1[C@@H]2C,> 10 µM,> 10 µM,5.4 µM,–
C[C@@H]1CC[C@@]2(OC1)O[C@H]1C[C@H]3[C@@H]4CC=C5C[C@@H](OC(=O)CCCC(=O)N6CCOCC6)CC[C@]5(C)[C@H]4CC[C@]3(C)[C@H]1[C@@H]2C,> 10 µM,> 10 µM,8.6 µM,–
C[C@@H]1CC[C@@]2(OC1)O[C@H]1C[C@H]3[C@@H]4CC=C5C[C@@H](OC(=O)/C=C\C(=O)N6CCNCC6)CC[C@]5(C)[C@H]4CC[C@]3(C)[C@H]1[C@@H]2C,> 10 µM,2.3 µM,–,39.1 µM
C[C@@H]1CC[C@@]2(OC1)O[C@H]1C[C@H]3[C@@H]4CC=C5C[C@@H](OC(=O)/C=C\C(=O)N6CCOCC6)CC[C@]5(C)[C@H]4CC[C@]3(C)[C@H]1[C@@H]2C,> 10 µM,> 10 µM,5.5 µM,–
C[C@@H]1CC[C@@]2(OC1)O[C@H]1C[C@H]3[C@@H]4CC=C5C[C@@H](OC(=O)CCCC(=O)N6CCCC6)CC[C@]5(C)[C@H]4CC[C@]3(C)[C@H]1[C@@H]2C,8.3 µM,> 10 µM,5.6 µM,–
CCN(CC)C(=O)CCC(=O)O[C@H]1CC[C@@]2(C)C(=CC[C@H]3[C@@H]4C[C@@H]5O[C@]6(CC[C@@H](C)CO6)[C@@H](C)[C@@H]5[C@@]4(C)CC[C@@H]32)C1,> 10 µM,> 10 µM,4.5 µM,–
C[C@@H]1CC[C@@]2(OC1)O[C@H]1C[C@H]3[C@@H]4CC=C5C[C@@H](OC(=O)c6ccccc6C(=O)N6CCOCC6)CC[C@]5(C)[C@H]4CC[C@]3(C)[C@H]1[C@@H]2C,> 10 µM,> 10 µM,–,–
C[C@@H]1CC[C@@]2(OC1)O[C@H]1C[C@H]3[C@@H]4CC=C5C[C@@H](OC(=O)c6ccccc6C(=O)N6CCc7ccccc7C6)CC[C@]5(C)[C@H]4CC[C@]3(C)[C@H]1[C@@H]2C,> 10 µM,> 10 µM,–,–
C[C@@H]1CC[C@@]2(OC1)O[C@H]1C[C@H]3[C@@H]4CC=C5C[C@@H](OC(=O)CCC(=O)N6CCN(S(=O)(=O)c7ccc(F)cc7)CC6)CC[C@]5(C)[C@H]4CC[C@]3(C)[C@H]1[C@@H]2C,> 10 µM,> 10 µM,3.7 µM,–
CCN(CC)C(=O)c1ccccc1C(=O)O[C@H]1CC[C@@]2(C)C(=CC[C@H]3[C@@H]4C[C@@H]5O[C@]6(CC[C@@H](C)CO6)[C@@H](C)[C@@H]5[C@@]4(C)CC[C@@H]32)C1,> 10 µM,> 10 µM,–,–
Cc1ccc(S(=O)(=O)N2CCN(C(=O)CCC(=O)O[C@H]3CC[C@@]4(C)C(=CC[C@H]5[C@@H]6C[C@@H]7O[C@]8(CC[C@@H](C)CO8)[C@@H](C)[C@@H]7[C@@]6(C)CC[C@@H]54)C3)CC2)cc1,> 10 µM,> 10 µM,4.7 µM,–
C[C@@H]1CC[C@@]2(OC1)O[C@H]1C[C@H]3[C@@H]4CC=C5C[C@@H](OC(=O)CCC(=O)N6CCc7ccccc7C6)CC[C@]5(C)[C@H]4CC[C@]3(C)[C@H]1[C@@H]2C,> 10 µM,> 10 µM,–,–
C[C@@H]1CC[C@@]2(OC1)O[C@H]1C[C@H]3[C@@H]4CC=C5C[C@@H](OC(=O)/C=C\C(=O)N6CCc7ccccc7C6)CC[C@]5(C)[C@H]4CC[C@]3(C)[C@H]1[C@@H]2C,–,–,7.6 µM,–
C[C@@H]1CC[C@@]2(OC1)O[C@H]1C[C@H]3[C@@H]4CC=C5C[C@@H](OC(=O)CCC(=O)N6CCN(S(=O)(=O)O)CC6)CC[C@]5(C)[C@H]4CC[C@]3(C)[C@H]1[C@@H]2C,> 10 µM,> 10 µM,–,–
C[C@@H]1CC[C@@]2(OC1)O[C@H]1C[C@H]3[C@@H]4CC=C5C[C@@H](OC(=O)c6ccccc6C(=O)N6CCCC6)CC[C@]5(C)[C@H]4CC[C@]3(C)[C@H]1[C@@H]2C,> 10 µM,> 10 µM,–,–
CCS(=O)(=O)N1CCN(C(=O)CCC(=O)O[C@H]2CC[C@@]3(C)C(=CC[C@H]4[C@@H]5C[C@@H]6O[C@]7(CC[C@@H](C)CO7)[C@@H](C)[C@@H]6[C@@]5(C)CC[C@@H]43)C2)CC1,> 10 µM,> 10 µM,6.2 µM,–
CCN(CC)C(=O)CCCC(=O)O[C@H]1CC[C@@]2(C)C(=CC[C@H]3[C@@H]4C[C@@H]5O[C@]6(CC[C@@H](C)CO6)[C@@H](C)[C@@H]5[C@@]4(C)CC[C@@H]32)C1,> 10 µM,> 10 µM,7.4 µM,–
C[C@@H]1CC[C@@]2(OC1)O[C@H]1C[C@H]3[C@@H]4CC=C5C[C@@H](OC(=O)CCC(=O)N6CCCC6)CC[C@]5(C)[C@H]4CC[C@]3(C)[C@H]1[C@@H]2C,> 10 µM,> 10 µM,–,–
C[C@@H]1CC[C@@]2(OC1)O[C@H]1C[C@H]3[C@@H]4CC=C5C[C@@H](OC(=O)CCCC(=O)N6CCc7ccccc7C6)CC[C@]5(C)[C@H]4CC[C@]3(C)[C@H]1[C@@H]2C,> 10 µM,> 10 µM,–,–
CC(=O)O[C@H]1C(=O)[C@@]2(C)[C@H]([C@H](OC(=O)c3ccccc3)[C@]3(O)C[C@H](OC(=O)[C@H](O)[C@@H](NC(=O)c4ccccc4)c4ccccc4)C(C)=C1C3(C)C)[C@]1(OC(C)=O)CO[C@@H]1C[C@@H]2O [PACLITAXEL],–,–,5.4 µM,> 100 µM
C[C@@H]1CC[C@@]2(OC1)O[C@H]1C[C@H]3[C@@H]4CC=C5C[C@@H](OC(=O)CCC(=O)N6CCN(S(=O)(=O)C7CC7)CC6)CC[C@]5(C)[C@H]4CC[C@]3(C)[C@H]1[C@@H]2C,> 10 µM,> 10 µM,4.2 µM,–
C[C@@H]1CC[C@@]2(OC1)O[C@H]1C[C@H]3[C@@H]4CC=C5C[C@@H](OC(=O)/C=C\C(=O)N6CCCC6)CC[C@]5(C)[C@H]4CC[C@]3(C)[C@H]1[C@@H]2C,> 10 µM,> 10 µM,–,–
